The values below come from paper PMC1084349 (BMC Neuroscience, 2005).

Where a SMILES comes first, the peptide text is derived from it.

One assay concerns the target T1, rTas1r2-rTas1r3 (Rattus norvegicus, UniProt Q923K1+Q9Z0R7).
T1 sequence (Q9Z0R7 20-843): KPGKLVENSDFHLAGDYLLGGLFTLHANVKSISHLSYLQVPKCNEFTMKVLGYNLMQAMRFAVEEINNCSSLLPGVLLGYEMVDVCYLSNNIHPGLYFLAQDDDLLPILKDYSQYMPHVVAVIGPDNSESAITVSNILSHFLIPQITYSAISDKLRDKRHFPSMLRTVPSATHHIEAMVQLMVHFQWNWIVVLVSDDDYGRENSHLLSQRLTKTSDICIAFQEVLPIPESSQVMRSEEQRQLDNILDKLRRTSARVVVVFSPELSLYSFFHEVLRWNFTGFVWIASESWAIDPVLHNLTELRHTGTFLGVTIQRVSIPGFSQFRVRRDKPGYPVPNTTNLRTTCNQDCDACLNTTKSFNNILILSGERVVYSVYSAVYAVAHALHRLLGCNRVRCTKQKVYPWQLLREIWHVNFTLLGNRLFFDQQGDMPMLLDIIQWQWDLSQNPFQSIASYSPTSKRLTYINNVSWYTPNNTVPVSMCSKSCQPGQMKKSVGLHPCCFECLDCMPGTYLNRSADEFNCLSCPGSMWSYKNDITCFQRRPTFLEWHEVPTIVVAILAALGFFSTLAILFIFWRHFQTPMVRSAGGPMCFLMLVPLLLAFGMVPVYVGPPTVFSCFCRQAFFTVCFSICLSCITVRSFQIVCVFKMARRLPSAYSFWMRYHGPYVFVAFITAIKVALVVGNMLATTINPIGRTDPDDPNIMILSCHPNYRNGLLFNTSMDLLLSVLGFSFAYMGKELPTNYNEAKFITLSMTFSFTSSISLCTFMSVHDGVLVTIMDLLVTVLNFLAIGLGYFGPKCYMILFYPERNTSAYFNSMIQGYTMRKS
T1 sequence (Q923K1 21-858): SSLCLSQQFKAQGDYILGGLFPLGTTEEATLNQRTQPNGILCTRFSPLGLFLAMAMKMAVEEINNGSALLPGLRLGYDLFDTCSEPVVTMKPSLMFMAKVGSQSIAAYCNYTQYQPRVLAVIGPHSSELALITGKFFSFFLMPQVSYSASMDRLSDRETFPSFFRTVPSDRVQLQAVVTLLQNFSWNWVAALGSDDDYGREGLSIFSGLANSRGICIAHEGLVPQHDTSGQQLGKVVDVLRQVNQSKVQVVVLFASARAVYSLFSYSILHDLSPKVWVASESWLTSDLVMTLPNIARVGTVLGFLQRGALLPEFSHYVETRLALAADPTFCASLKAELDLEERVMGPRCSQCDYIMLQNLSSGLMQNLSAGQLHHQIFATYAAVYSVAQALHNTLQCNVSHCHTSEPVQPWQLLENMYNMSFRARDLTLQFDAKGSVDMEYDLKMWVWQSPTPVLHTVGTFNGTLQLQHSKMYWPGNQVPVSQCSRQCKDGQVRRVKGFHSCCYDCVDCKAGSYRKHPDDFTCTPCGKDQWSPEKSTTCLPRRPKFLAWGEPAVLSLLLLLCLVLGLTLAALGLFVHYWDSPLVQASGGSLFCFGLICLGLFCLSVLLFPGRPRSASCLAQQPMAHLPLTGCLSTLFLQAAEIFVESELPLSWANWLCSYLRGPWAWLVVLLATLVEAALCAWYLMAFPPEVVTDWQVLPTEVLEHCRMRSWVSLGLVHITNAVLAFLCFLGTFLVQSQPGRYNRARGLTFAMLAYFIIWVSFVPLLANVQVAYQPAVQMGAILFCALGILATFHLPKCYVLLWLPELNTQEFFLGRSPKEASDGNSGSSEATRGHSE
Briefly: Calcium mobilization (FLIPR) in transfected HEK293T-Gα16gust44 cells, rat sweet receptor. Particulars: asp 15 mM; cyc 30 mM; neo 0.1 mM; sac 10 mM; suc 100 mM; stev 1 mM. In general terms: Calcium assays in cells follow changes in intracellular calcium, usually with a dye or a luminescent sensor.

The test system of assay [1] is human TAS1R2-TAS1R3 heteromer. As to conditions: cited from earlier work.
In assay [2] the test system is hTAS1R2 and tas1r3-hN-rTM. Briefly: Calcium mobilization (FLIPR), chimera with human N-terminus and rat transmembrane region. In kind it is cell-based. As to conditions: asp 15 mM; cyc 30 mM; neo 0.1 mM; sac 10 mM; suc 100 mM; stev 1 mM. The source says: The receptor chimeras of Tas1r3 were constructed using recombinant PCR. In the first reactions the N-terminal and the C-terminal part containing the seven transmembrane domains of hTAS1R3 and rTas1r3 were amplified from plasmid DNA using Ultra Pfu Polymerase (Stratagene). For the hTAS1R3 and rTas1r3 N-termini the forward vector-anchored primer (CMV: […]) and a reverse gene specific primer ([…]) were used. The hTAS1R3 and rTas1r3 C-terminal part were amplified with forward gene specific primer ([…]) and a reverse vector-anchored primer ([…]). PCR conditions were: 5 min, 94°C, 24 cycles 1 min 94°C, 0.5 min 64°C, 2 min 72°C; 5 min 72°C. The amplicons were purified using the Highpure PCR Product Purification Kit (Roche) and used as template for the second PCR. To create the chimeric receptor tas1r3-hN-rTM, equimolar amounts (~50 ng) of the hTAS1R3 N-terminus and rTas1r3 transmembrane domains were combined without additional oligonucleotides. PCR conditions were: 5 min 94°C; 15 cycles of 2 min 64°C, 2 min 72°C and 0.5 min 94°C; followed by 5 min 64°C and 10 min 72°C. […] These chimeras were cloned into pcDNA5/FRT.
The cDNAs were transiently transfected into HEK293T cells stably expressing the chimeric G-protein subunit Gα16gust44 [20] using Lipofectamine 2000 (Invitrogen) according to the manufacturer's protocol. 3–4 hours after transfection, DMEM was replaced by low-glucose DMEM supplemented with GlutaMAX and 10% dialyzed FBS (Invitrogen). 22–44 hours later, cells were loaded for 1 hour with the calcium sensitive dye Fluo4-AM (2 μg/ml in DMEM, Molecular Probes). Cells were washed 3x in solution C1 (130 mM NaCl, 5 mM KCl, 10 mM Hepes, 2 mM CaCl2, and 5 mM Glucose, pH 7,4). Calcium mobilization was monitored by an automated fluorometric imaging plate reader (FLIPR, Molecular Devices). Ligands (Sigma-Aldrich, Merck) were dissolved in C1 solution. All data were collected from at least two independent experiments carried out in triplicate. The obtained calcium signals were corrected for the response of mock transfected cells and normalized to the fluorescence of cells prior to the stimulus using ΔF/F=(F-F0)/F0. […]
All sweeteners were used at concentrations which were close to the maximal obtainable signal. (c) Alignment of amino acid sequences of the human, rat, and mouse Tas1r3 transmembrane regions. Color code: white, identical; grey, conservative; dark-grey, similar; black, non-similar. TM, predicted transmembrane domain, indicated by a black bar. Dots indicate the location of the primer used to generate the chimeric rat-human Tas1r3 receptors. Asterisks denote amino acid positions that are identical in rat and mouse but variable between humans and rodents and are located in the extracellular loops or the upper part of the transmembran regions. Boxes indicate the several rTas1r3 mutants m1 – m7, including the amino acid substitutions. m6/1 – m6/3 signified the reconverted amino acid of mutant m6.

`COC(=O)[C@H](Cc1ccccc1)NC(=O)[C@@H](N)CC(=O)O` [aspartame] (HELM PEPTIDE1{D.F.[CO[*:1]]}$$$$V2.0): the “activation of receptor (calcium response)” value at rTas1r2-rTas1r3 is recorded as “did not activate”; in assay [2], “responded”. Besides, in assay [1], the activation of heteromer entry is “only activate the human”.
Take `O=S(=O)(O)NC1CCCCC1` [cyclamate]: the “activation of receptor (calcium response)” value at rTas1r2-rTas1r3 is “did not activate”; in assay [2], “not”. Further, the activation of heteromer entry in assay [1] is “only activate the human”.
In the case of `COc1ccc(CCC(=O)c2c(O)cc(O[C@@H]3O[C@H](CO)[C@@H](O)[C@H](O)[C@H]3O[C@@H]3O[C@@H](C)[C@H](O)[C@@H](O)[C@H]3O)cc2O)cc1O` [neohesperidine dihydrochalcone], the “activation of receptor (calcium response)” value at rTas1r2-rTas1r3 is recorded as “did not activate”; in assay [2] it was “not”.
Taken in the same sequence, the figures for `C=C1C[C@@]23CC[C@H]4[C@@](C)(CCC[C@@]4(C)C(=O)O[C@@H]4O[C@H](CO)[C@@H](O)[C@H](O)[C@H]4O)[C@@H]2CC[C@]1(O[C@@H]1O[C@H](CO)[C@@H](O)[C@H](O)[C@H]1O[C@@H]1O[C@H](CO)[C@@H](O)[C@H](O)[C@H]1O)C3` [stevioside] were “robustly activated” and “responded”.
As to `OC[C@H]1O[C@@](CO)(O[C@H]2O[C@H](CO)[C@@H](O)[C@H](O)[C@H]2O)[C@@H](O)[C@@H]1O` [sucrose], the “activation of receptor (calcium response)” value was “robustly activated” on rTas1r2-rTas1r3 and “responded” in assay [2].
